Laboratory results: patent publication US4349667A, “Aminoglycoside antibiotic G-367-2” (Toyo Jozo Kabushiki Kaisha, priority 1979, dated 1982)
In brackets after ≈: the same amount, converted by molar mass.

Legend:
Type in all cases: cell-based
[1] = test system: Streptococcus pyogenes N.Y.5; assay: antimicrobial spectrum (MIC) by agar dilution method; details: read-out: minimum inhibitory concentration, MIC
Text: (§1) The antimicrobial spectrum (minimum inhibitory concentration, MIC) of G-367-2 by agar dilution method is as follows: […]

[2] = test system: Shigella sonnei E33; assay: as above; details: read-out: minimum inhibitory concentration, MIC
Text: as §1

[3] = test system: Pseudomonas aeruginosa 2512; assay: as above; details: read-out: minimum inhibitory concentration, MIC
Text: as §1

[4] = test system: Pseudomonas putida 1842; assay: as above; details: read-out: minimum inhibitory concentration, MIC
Text: as §1

[5] = test system: Pseudomonas aeruginosa ML4561; assay: as above; details: ML4561, read-out: minimum inhibitory concentration, MIC
Text: as §1

[6] = test system: Pseudomonas aeruginosa ML4561 Rms164-1; assay: as above; details: ML4561RMS1641, read-out: minimum inhibitory concentration, MIC
Text: as §1

[7] = test system: Escherichia coli W3630 RGN14; assay: as above; details: W3630RGN14, read-out: minimum inhibitory concentration, MIC
Text: as §1

[8] = test system: Citrobacter freundii GN346; assay: as above; details: GN346, read-out: minimum inhibitory concentration, MIC
Text: as §1

[9] = test system: Serratia marcescens; assay: as above; details: read-out: minimum inhibitory concentration, MIC
Text: as §1

[10] = test system: Klebsiella pneumonia ATC 10031; assay: as above; details: Klebsiella pneumoniae, ATC10031, read-out: minimum inhibitory concentration, MIC
Text: as §1

[11] = test system: Pseudomonas aeruginosa IAM1095; assay: as above; details: read-out: minimum inhibitory concentration, MIC
Text: as §1

[12] = test system: Escherichia coli NIHJ-JC2; assay: as above; details: NIHJJC2, read-out: minimum inhibitory concentration, MIC
Text: as §1

[13] = test system: Staphylococcus aureus 0119; assay: as above; details: read-out: minimum inhibitory concentration, MIC
Text: as §1

[14] = test system: Proteus morganii 0239; assay: as above; details: Morganella morganii, read-out: minimum inhibitory concentration, MIC
Text: as §1

[15] = test system: Bacillus subtilis ATCC 6633; assay: as above; details: ATCC6633, read-out: minimum inhibitory concentration, MIC
Text: as §1

[16] = test system: Enterobacter cloacae GN336; assay: as above; details: read-out: minimum inhibitory concentration, MIC
Text: as §1

[17] = test system: Staphylococcus aureus MS 27; assay: as above; details: MS27, read-out: minimum inhibitory concentration, MIC
Text: as §1

[18] = test system: Pseudomonas aeruginosa ML4561 RP4; assay: as above; details: ML4561RP4, read-out: minimum inhibitory concentration, MIC
Text: as §1

[19] = test system: Enterobacter aerogenes 0655; assay: as above; details: Klebsiella aerogenes, read-out: minimum inhibitory concentration, MIC
Text: as §1

[20] = test system: Pseudomonas maltophilia 1850; assay: as above; details: Stenotrophomonas maltophilia, read-out: minimum inhibitory concentration, MIC
Text: as §1

[21] = test system: Escherichia coli W3630; assay: as above; details: read-out: minimum inhibitory concentration, MIC
Text: as §1

[22] = test system: Staphylococcus epidermidis sp-al-1; assay: as above; details: SPAL1, read-out: minimum inhibitory concentration, MIC
Text: as §1

[23] = test system: Staphylococcus aureus ATCC 6538P; assay: as above; details: ATCC6538P, read-out: minimum inhibitory concentration, MIC
Text: as §1

[24] = test system: Pseudomonas aeruginosa ML4561 Rms166; assay: as above; details: ML4561RMS166, read-out: minimum inhibitory concentration, MIC
Text: as §1

[25] = test system: Pseudomonas aeruginosa 1946; assay: as above; details: read-out: minimum inhibitory concentration, MIC
Text: as §1

[26] = test system: Proteus rettgeri ACR; assay: as above; details: Providencia rettgeri, read-out: minimum inhibitory concentration, MIC
Text: as §1

[27] = test system: Salmonella enteritidis Gartner; assay: as above; details: Salmonella enterica, read-out: minimum inhibitory concentration, MIC
Text: as §1

[28] = test system: Gram negative bacteria; assay: antibacterial effect against Gram negative bacteria
Text: as §1

**Q.** With `CNC1C(O)C(OC2C(N)CC(N)C(OC3OC(CN)=CCC3N)C2O)OCC1(C)O` (stereo not shown) [G-367-2] as the compound, how does the MIC [1] read?
**A.** The MIC was 6.3 µg/mL (≈ 14.1 µM).

**Q.** What about the MIC [2] of the same compound?
**A.** Its MIC is 3.1 µg/mL (≈ 6.93 µM).

**Q.** And the MIC [3]?
**A.** The MIC was over 100 µg/mL.

**Q.** And the MIC [4]?
**A.** The MIC was over 100 µg/mL.

**Q.** And the MIC [5]?
**A.** Its MIC is 125 µg/mL (≈ 279 µM).

**Q.** What about the MIC [6] of the same compound?
**A.** The MIC was 50 µg/mL (≈ 112 µM).

**Q.** And the MIC [7]?
**A.** The MIC was 1.6 µg/mL (≈ 3.58 µM).

**Q.** What about the MIC [8] of the same compound?
**A.** Its MIC is 3.1 µg/mL (≈ 6.93 µM).

**Q.** And the MIC [9]?
**A.** The MIC was 50 µg/mL (≈ 112 µM).

**Q.** And the MIC [10]?
**A.** The MIC was 1.6 µg/mL (≈ 3.58 µM).

**Q.** What about the MIC [11] of the same compound?
**A.** Its MIC is 25 µg/mL (≈ 55.9 µM).

**Q.** What about the MIC [12] of the same compound?
**A.** The MIC was 3.1 µg/mL (≈ 6.93 µM).

**Q.** And the MIC [13]?
**A.** Its MIC is 12.5 µg/mL (≈ 27.9 µM).

**Q.** And the MIC [14]?
**A.** The MIC was 6.3 µg/mL (≈ 14.1 µM).

**Q.** What about the MIC [15] of the same compound?
**A.** The MIC was 1.6 µg/mL (≈ 3.58 µM).

**Q.** What about the MIC [16] of the same compound?
**A.** The MIC was 1.6 µg/mL (≈ 3.58 µM).

**Q.** What about the MIC [17] of the same compound?
**A.** The MIC was 12.5 µg/mL (≈ 27.9 µM).

**Q.** What about the MIC [18] of the same compound?
**A.** Its MIC is 6.3 µg/mL (≈ 14.1 µM).

**Q.** And the MIC [19]?
**A.** The MIC was 1.6 µg/mL (≈ 3.58 µM).

**Q.** What about the MIC [20] of the same compound?
**A.** The MIC was over 100 µg/mL.

**Q.** And the MIC [21]?
**A.** The MIC was 1.6 µg/mL (≈ 3.58 µM).

**Q.** And the MIC [22]?
**A.** Its MIC is 1.6 µg/mL (≈ 3.58 µM).

**Q.** And the MIC [23]?
**A.** Its MIC is 12.5 µg/mL (≈ 27.9 µM).

**Q.** And the MIC [24]?
**A.** The MIC was over 100 µg/mL.

**Q.** And the MIC [25]?
**A.** The MIC was over 100 µg/mL.

**Q.** And the MIC [26]?
**A.** The MIC was 3.1 µg/mL (≈ 6.93 µM).

**Q.** What about the MIC [27] of the same compound?
**A.** The MIC was 3.1 µg/mL (≈ 6.93 µM).

**Q.** What about the antibacterial effect [28] of the same compound?
**A.** The antibacterial effect was “strong antibacterial effect”.
